Reference: patent US12281363B2, “Methods for detecting antiviral-drug resistant virus” (Secretary of State for Health and Social Care, priority 2018, dated 2025)
Where two headings read alike, the source gives them in different places.

Test system: HSV-1
Assay: Plaque reduction assay, HSV-1 clinical isolates on Vero cells
Type: cell-based
Details: Human alphaherpesvirus 1, Vero
Description: Viral isolates were used to infect a sub-confluent monolayer of Vero cells at a concentration of 75 or 50 plaque forming units (PFU) per well for HSV-1 and HSV-2, respectively. […] CMC medium typically used to create a semisolid interface and prevents indiscrimate viral spreading. Other materials (e.g. agar) may also be used to create this interface.
Cells were fixed with 10% formalin and stained with crystal violet before enumeration of the plaques (microscopic observation or use of fluorescent antibodies for detection is also suitable). The data obtained from these experiments were then expressed as percent inhibition of viral infectivity relative to the no drug control.
Definitions of phenotypic drug susceptibility classification as sensitive or resistant were as follows: ACV, <3 μM or >40 μM; PCV, <10 μM or >40 μM; CDV, <24 μM or >30 μM; FOS, <250 μM or >400 μM; and ACV, <6.5 μM or >40 μM; PCV, <38 μM or >40 μM; FOS, <250 μM or >400 μM for HSV-1 and HSV-2, respectively. Any IC50 values falling in between these sensitive and resistant cut-offs were reported as intermediate resistance.
The phenotype (i.e. reactivity to a drug) of the virus was characterised by the plaque reduction assay as described above.

O=C(O)P(=O)(O)O [Foscarnet, foscarnet]
IC50 (72 h, isolate HPG053, HSV-1 pol L802R + A834S (2405T>G, 2500G>T), also TK R176W, read-out: Drug susceptibility (IC50 value)): 626 µM | IC50 (isolate HPG002, HSV-1 pol E992K (2974G>A), also TK insert (G) nt 430-436, pol A1169T, read-out: Drug susceptibility (IC50 value)): < 50 µM | IC50 (isolate HPG002, HSV-1 pol E992K (2974G>A), also TK insert (G) nt 430-436, pol A1169T, read-out: Drug susceptibility Foscarnet (FOS)): < 250 µM | IC50 (isolate HPG003, HSV-1 TK Y172S (515A>C), read-out: Drug susceptibility (IC50 value)): 79 µM | IC50 (isolate HPG003, HSV-1 TK Y172S (515A>C), read-out: Drug susceptibility Foscarnet (FOS)): < 250 µM | IC50 (isolate HPG005, HSV-1 TK A37V (110C>T), read-out: Drug susceptibility (IC50 value)): 36.9 µM | IC50 (isolate HPG005, HSV-1 TK A37V (110C>T), read-out: Drug susceptibility Foscarnet (FOS)): < 250 µM | IC50 (isolate HPG008, HSV-1 TK V204G (611T>G), read-out: Drug susceptibility (IC50 value)): 58.3 µM | IC50 (isolate HPG008, HSV-1 TK V204G (611T>G), read-out: Drug susceptibility Foscarnet (FOS)): < 250 µM | IC50 (isolate HPG009, HSV-1 pol E992K (2974G>A), also pol A1169T, read-out: Drug susceptibility (IC50 value)): 77.5 µM | IC50 (isolate HPG009, HSV-1 pol E992K (2974G>A), also pol A1169T, read-out: Drug susceptibility Foscarnet (FOS)): < 250 µM | IC50 (isolate HPG010, HSV-1 TK Q125* (373C>T), read-out: Drug susceptibility (IC50 value)): 46.7 µM | IC50 (isolate HPG010, HSV-1 TK Q125* (373C>T), read-out: Drug susceptibility Foscarnet (FOS)): < 250 µM | IC50 (isolate HPG011, HSV-1 TK Q125* (373C>T), read-out: Drug susceptibility (IC50 value)): 56 µM | IC50 (isolate HPG011, HSV-1 TK Q125* (373C>T), read-out: Drug susceptibility Foscarnet (FOS)): < 250 µM | IC50 (isolate HPG013, HSV-1 TK M121I (363G>A), read-out: Drug susceptibility (IC50 value)): 78 µM | IC50 (isolate HPG013, HSV-1 TK M121I (363G>A), read-out: Drug susceptibility Foscarnet (FOS)): < 250 µM | IC50 (isolate HPG013, HSV-1 pol D83A (248A>C), also TK M121I, pol A1169T, read-out: Drug susceptibility (IC50 value)): 78 µM | IC50 (isolate HPG013, HSV-1 pol D83A (248A>C), also TK M121I, pol A1169T, read-out: Drug susceptibility Foscarnet (FOS)): < 250 µM | IC50 (isolate HPG014, HSV-1 pol A1115T (3343G>A), read-out: Drug susceptibility (IC50 value)): 141 µM | IC50 (isolate HPG014, HSV-1 pol A1115T (3343G>A), read-out: Drug susceptibility Foscarnet (FOS)): < 250 µM | IC50 (isolate HPG014, HSV-1 pol R993C (2977C>T), read-out: Drug susceptibility (IC50 value)): 141 µM | IC50 (isolate HPG014, HSV-1 pol R993C (2977C>T), read-out: Drug susceptibility Foscarnet (FOS)): < 250 µM | IC50 (isolate HPG014, HSV-1 pol T54A (160A>G), read-out: Drug susceptibility (IC50 value)): 141 µM | IC50 (isolate HPG014, HSV-1 pol T54A (160A>G), read-out: Drug susceptibility Foscarnet (FOS)): < 250 µM | IC50 (isolate HPG015, HSV-1 pol 966stop or F965_I966insF (2892_2893insT to 2895_2896insT), read-out: Drug susceptibility (IC50 value)): 162 µM | IC50 (isolate HPG015, HSV-1 pol 966stop or F965_I966insF (2892_2893insT to 2895_2896insT), read-out: Drug susceptibility Foscarnet (FOS)): < 250 µM | IC50 (isolate HPG018, HSV-1 TK frameshift (881delC to 885delC), read-out: Drug susceptibility (IC50 value)): 66.7 µM | IC50 (isolate HPG018, HSV-1 TK frameshift (881delC to 885delC), read-out: Drug susceptibility Foscarnet (FOS)): < 250 µM | IC50 (isolate HPG018, HSV-1 pol P1199T (3595C>A), also TK deletion (C) nt 881-885, pol A1169T, read-out: Drug susceptibility (IC50 value)): 66.7 µM | IC50 (isolate HPG018, HSV-1 pol P1199T (3595C>A), also TK deletion (C) nt 881-885, pol A1169T, read-out: Drug susceptibility Foscarnet (FOS)): < 250 µM | IC50 (isolate HPG019, HSV-1 pol K750T (2249A>C), also TK deletion (G) nt 430-436, pol A1169T, read-out: Drug susceptibility (IC50 value)): 190 µM | IC50 (isolate HPG019, HSV-1 pol K750T (2249A>C), also TK deletion (G) nt 430-436, pol A1169T, read-out: Drug susceptibility Foscarnet (FOS)): < 250 µM | IC50 (isolate HPG020, HSV-1 pol S911N (2732G>A), also pol A1169T, read-out: Drug susceptibility (IC50 value)): 99.3 µM | IC50 (isolate HPG020, HSV-1 pol S911N (2732G>A), also pol A1169T, read-out: Drug susceptibility Foscarnet (FOS)): < 250 µM | IC50 (isolate HPG021, HSV-1 pol R681Q (2042G>A), also TK deletion (G) nt 430-436, read-out: Drug susceptibility (IC50 value)): 156 µM | IC50 (isolate HPG021, HSV-1 pol R681Q (2042G>A), also TK deletion (G) nt 430-436, read-out: Drug susceptibility Foscarnet (FOS)): < 250 µM | IC50 (isolate HPG021, HSV-1 pol T839A (2515A>G), also TK deletion (G) nt 430-436, read-out: Drug susceptibility (IC50 value)): 156 µM | IC50 (isolate HPG021, HSV-1 pol T839A (2515A>G), also TK deletion (G) nt 430-436, read-out: Drug susceptibility Foscarnet (FOS)): < 250 µM | IC50 (isolate HPG025, HSV-1 pol E850Q (2548G>C), also TK R216C, read-out: Drug susceptibility (IC50 value)): 99.1 µM | IC50 (isolate HPG025, HSV-1 pol E850Q (2548G>C), also TK R216C, read-out: Drug susceptibility Foscarnet (FOS)): < 250 µM | IC50 (isolate HPG026, HSV-1 pol E850Q (2548G>C), also TK R216C, pol A1169T, read-out: Drug susceptibility (IC50 value)): 68.3 µM | IC50 (isolate HPG026, HSV-1 pol E850Q (2548G>C), also TK R216C, pol A1169T, read-out: Drug susceptibility Foscarnet (FOS)): < 250 µM | IC50 (isolate HPG027, HSV-1 TK V204G (611T>G), also pol S914L, A1169AT, read-out: Drug susceptibility (IC50 value)): 216 µM | IC50 (isolate HPG027, HSV-1 TK V204G (611T>G), also pol S914L, A1169AT, read-out: Drug susceptibility Foscarnet (FOS)): < 250 µM | IC50 (isolate HPG027, HSV-1 pol S914L (2741C>T), also TK V204G, pol A1169T, read-out: Drug susceptibility (IC50 value)): 216 µM | IC50 (isolate HPG027, HSV-1 pol S914L (2741C>T), also TK V204G, pol A1169T, read-out: Drug susceptibility Foscarnet (FOS)): < 250 µM | IC50 (isolate HPG029, HSV-1 TK Y172S (515A>C), read-out: Drug susceptibility (IC50 value)): 111 µM | IC50 (isolate HPG029, HSV-1 TK Y172S (515A>C), read-out: Drug susceptibility Foscarnet (FOS)): < 250 µM | IC50 (isolate HPG031, HSV-1 pol E1120A (3359A>C), also a TK resistance mutation (footnote e), read-out: Drug susceptibility (IC50 value)): 108 µM | IC50 (isolate HPG031, HSV-1 pol E1120A (3359A>C), also a TK resistance mutation (footnote e), read-out: Drug susceptibility Foscarnet (FOS)): < 250 µM | IC50 (isolate HPG031, HSV-1 pol G139R (415G>C or 415G>A), also a TK resistance mutation (footnote e), read-out: Drug susceptibility (IC50 value)): 108 µM | IC50 (isolate HPG031, HSV-1 pol G139R (415G>C or 415G>A), also a TK resistance mutation (footnote e), read-out: Drug susceptibility Foscarnet (FOS)): < 250 µM | IC50 (isolate HPG032, HSV-1 TK 183* (437_438insA), read-out: Drug susceptibility (IC50 value)): 100 µM | IC50 (isolate HPG032, HSV-1 TK 183* (437_438insA), read-out: Drug susceptibility Foscarnet (FOS)): < 250 µM
